The supplement of paper PMC7017272
± gives the standard deviation of the averaged measurements.

Assays:
Conditions in all cases: treatment time: 3 days
UT-SCC-44 [1] = test: drug sensitivity score (DSS); higher = more sensitive; extreme values may be limits of the assay
Method in brief: (§1)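 HPV-negative HNSCC cell lines were plated at 500 cells/well in 384-well plates, either on plastic, on wells coated with Matrigel or Myogel (500 µg/mL), or embedded in Matrigel or Myogel plus rat collagen I. Each compound was tested at five 10-fold concentrations over 3 days. Viability was measured by CellTiter-Glo 2.0 luminescence, and IC50, maximal inhibition and drug sensitivity score came from percent-inhibition dose–response curves fitted in the FIMM pipeline after normalisation to vehicle (0.1% DMSO) and cell-killing control wells.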

UT-SCC-14 = test: as above
Method in brief: as §1

UT-SCC-24B = test: as above
Method in brief: as §1

UT-SCC-73 [2] = test: as above
Method in brief: as §1

UT-SCC-106A [3] = test: as above
Method in brief: as §1

UT-SCC-28 = test: as above
Method in brief: as §1

UT-SCC-81 = test: as above
Method in brief: as §1

UT-SCC-42B [4] = test: as above
Method in brief: as §1

UT-SCC-42A = test: as above
Method in brief: as §1

UT-SCC-8 = test: as above
Method in brief: as §1

UT-SCC-40 [5] = test: as above
Method in brief: as §1

UT-SCC-24A [6] = test: maximal % inhibition of viability relative to DMSO; higher = stronger effect
Description: (§2)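 HNSCC cell lines (500 cells/well, 384-well) were cultured on plastic, on top of (2D) or embedded (3D) in Matrigel or human leiomyoma matrix Myogel (500 ug/mL; Myogel 3D mixed with rat collagen I). Cells were treated for 3 days with 5 ten-fold concentrations of each drug, and viability was read by CellTiter-Glo. Viability was normalised to DMSO (0% inhibition) and 100 uM benzethonium chloride (100% inhibition) controls and fitted with the FIMM DSRT pipeline to give IC50 (nM), maximal % inhibition and the drug sensitivity score (DSS). Suffixes _1/_2/_3 on drug names are replicates.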

UT-SCC-24A [7] = test: relative IC50 (midpoint of the fitted curve; maximal inhibition may be below 50%); higher = less potent
Description: as §2

UT-SCC-24A [8] = test: drug sensitivity score (DSS); higher = more sensitive
Description: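 HNSCC cell lines (500 cells/well, 384-well) were cultured on plastic, on top of (2D) or embedded (3D) in Matrigel or human leiomyoma matrix Myogel (500 ug/mL; Myogel 3D mixed with rat collagen I). Cells were treated for 3 days with 5 ten-fold concentrations of each drug, and viability was read by CellTiter-Glo. Suffixes _1/_2/_3 on drug names are replicates.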

UT-SCC-44 [9] = test: relative IC50 (midpoint of the fitted curve; maximal inhibition may be below 50%); higher = less potent
Method in brief: as §1

UT-SCC-73 [10] = test: as above
Method in brief: as §1

UT-SCC-106A [11] = test: as above
Method in brief: as §1

UT-SCC-42B [12] = test: as above
Method in brief: as §1

UT-SCC-40 [13] = test: as above
Method in brief: as §1

[14] = culture condition: embedded in Matrigel
[15] = culture condition: embedded in Myogel + collagen I
[16] = culture condition: on top of Matrigel
[17] = culture condition: on top of Myogel
[18] = culture condition: plastic 2D (no matrix)

Compound `Cn1cnc2c(F)c(Nc3ccc(Br)cc3F)c(C(=O)NOCCO)cc21` [Binimetinib] has a drug sensitivity score (UT-SCC-44 [1]; [14]) of 13.9 ± 2.2 DSS, a drug sensitivity score (UT-SCC-44 [1]; [15]) of 3.57 ± 1 DSS and a drug sensitivity score (UT-SCC-44 [1]; [16]) of 11.4 ± 0.57 DSS. For the same compound, the drug sensitivity score (UT-SCC-44 [1]; [17]) was 5.07 ± 1.4 DSS, the drug sensitivity score (UT-SCC-44 [1]; [18]) was 7.77 ± 4.3 DSS and the drug sensitivity score (UT-SCC-14; [14]) was 6 ± 4.4 DSS. For the same compound, the drug sensitivity score (UT-SCC-14; [15]) was 4.73 ± 3.5 DSS, the drug sensitivity score (UT-SCC-14; [16]) was 5.1 ± 3.6 DSS and the drug sensitivity score (UT-SCC-14; [17]) was 4.27 ± 4.4 DSS. For the same compound, the drug sensitivity score (UT-SCC-14; [18]) was 2.27 ± 2 DSS, the drug sensitivity score (UT-SCC-24B; [14]) was 6.43 ± 1 DSS and the drug sensitivity score (UT-SCC-24B; [15]) was 6.03 ± 2.4 DSS. For the same compound, the drug sensitivity score (UT-SCC-24B; [16]) was 5.6 ± 0.53 DSS, the drug sensitivity score (UT-SCC-24B; [17]) was 2.7 ± 0.61 DSS and the drug sensitivity score (UT-SCC-24B; [18]) was 9.3 ± 1.2 DSS. The drug sensitivity score (UT-SCC-73 [2]; [14]) was 14.6 ± 0.67 DSS, the drug sensitivity score (UT-SCC-73 [2]; [15]) was 9.93 ± 3.5 DSS and the drug sensitivity score (UT-SCC-73 [2]; [16]) was 14.3 ± 0.8 DSS. The drug sensitivity score (UT-SCC-73 [2]; [17]) was 8.03 ± 1.4 DSS, the drug sensitivity score (UT-SCC-73 [2]; [18]) was 12 ± 1 DSS and the drug sensitivity score (UT-SCC-106A [3]; [14]) was 11.8 ± 0.81 DSS. For the same compound, the drug sensitivity score (UT-SCC-106A [3]; [15]) was 0.567 ± 0.9 DSS, the drug sensitivity score (UT-SCC-106A [3]; [16]) was 12.8 ± 2.5 DSS and the drug sensitivity score (UT-SCC-106A [3]; [17]) was 1.67 ± 0.47 DSS. The drug sensitivity score (UT-SCC-106A [3]; [18]) was 11.7 ± 0.51 DSS, the drug sensitivity score (UT-SCC-28; [14]) was 6.5 ± 2.1 DSS and the drug sensitivity score (UT-SCC-28; [15]) was 0 DSS. For the same compound, the drug sensitivity score (UT-SCC-28; [16]) was 4.43 ± 1.8 DSS, the drug sensitivity score (UT-SCC-28; [18]) was 2.87 ± 2.4 DSS and the drug sensitivity score (UT-SCC-81; [14]) was 20.4 ± 0.21 DSS. For the same compound, the drug sensitivity score (UT-SCC-81; [15]) was 0.933 ± 0.55 DSS, the drug sensitivity score (UT-SCC-81; [16]) was 11 ± 1.7 DSS and the drug sensitivity score (UT-SCC-81; [17]) was 3.7 ± 1.1 DSS. For the same compound, the drug sensitivity score (UT-SCC-81; [18]) was 4.4 ± 0.69 DSS, the drug sensitivity score (UT-SCC-42B [4]; [14]) was 16 ± 0.97 DSS and the drug sensitivity score (UT-SCC-42B [4]; [16]) was 7.13 ± 3.2 DSS. For the same compound, the drug sensitivity score (UT-SCC-42B [4]; [17]) was 1.77 ± 0.51 DSS, the drug sensitivity score (UT-SCC-42B [4]; [18]) was 3.47 ± 0.32 DSS and the drug sensitivity score (UT-SCC-42A; [14]) was 11.2 ± 1.7 DSS. It also gave a drug sensitivity score (UT-SCC-42A; [15]) of 5.2 ± 2.5 DSS, a drug sensitivity score (UT-SCC-42A; [16]) of 12.8 ± 2.1 DSS and a drug sensitivity score (UT-SCC-42A; [17]) of 5.1 ± 2.7 DSS. The drug sensitivity score (UT-SCC-42A; [18]) was 7.97 ± 0.65 DSS, the drug sensitivity score (UT-SCC-8; [14]) was 5.73 ± 4.6 DSS and the drug sensitivity score (UT-SCC-8; [15]) was 1.97 ± 3.4 DSS. For the same compound, the drug sensitivity score (UT-SCC-8; [16]) was 3.73 ± 2.5 DSS, the drug sensitivity score (UT-SCC-8; [17]) was 4.67 ± 4.2 DSS and the drug sensitivity score (UT-SCC-8; [18]) was 3.83 ± 3.4 DSS. It also gave a drug sensitivity score (UT-SCC-40 [5]; [14]) of 16.3 ± 2.6 DSS, a drug sensitivity score (UT-SCC-40 [5]; [15]) of 10.8 ± 4.3 DSS and a drug sensitivity score (UT-SCC-40 [5]; [16]) of 11.7 ± 2.1 DSS. The drug sensitivity score (UT-SCC-40 [5]; [17]) was 5.87 ± 1.8 DSS, the drug sensitivity score (UT-SCC-40 [5]; [18]) was 7.63 ± 2 DSS and the “maximal % inhibition of viability” value (UT-SCC-24A [6]; [14]) was 79.6 ± 1.9%. For the same compound, the “maximal % inhibition of viability” value (UT-SCC-24A [6]; [15]) was 37 ± 7.2%, the “maximal % inhibition of viability” value (UT-SCC-24A [6]; [16]) was 72.5 ± 1.2% and the “maximal % inhibition of viability” value (UT-SCC-24A [6]; [17]) was 35.6 ± 4.6%. For the same compound, the “maximal % inhibition of viability” value (UT-SCC-24A [6]; [18]) was 68.3 ± 1.5%, the “relative IC50” value (UT-SCC-24A [7]; [16]) was 5.41 nM and the “relative IC50” value (UT-SCC-24A [7]; [17]) was 17.3 nM. The “relative IC50” value (UT-SCC-24A [7]; [18]) was 6.48 nM, the drug sensitivity score (UT-SCC-24A [8]; [14]) was 24.4 ± 3.8 DSS and the drug sensitivity score (UT-SCC-24A [8]; [15]) was 9.83 ± 4.3 DSS. The drug sensitivity score (UT-SCC-24A [8]; [16]) was 19.9 ± 0.72 DSS, the drug sensitivity score (UT-SCC-24A [8]; [17]) was 6.9 ± 0.85 DSS and the drug sensitivity score (UT-SCC-24A [8]; [18]) was 18.1 ± 0.64 DSS. The “relative IC50” value (UT-SCC-44 [9]; [14]) was 19.6 nM, the “relative IC50” value (UT-SCC-44 [9]; [17]) was 41.3 nM and the “relative IC50” value (UT-SCC-73 [10]; [14]) was 28.2 nM. For the same compound, the “relative IC50” value (UT-SCC-73 [10]; [16]) was 23.7 nM, the “relative IC50” value (UT-SCC-73 [10]; [17]) was 65.3 nM and the “relative IC50” value (UT-SCC-73 [10]; [18]) was 27.9 nM. The “relative IC50” value (UT-SCC-106A [11]; [14]) was 8.97 nM, the “relative IC50” value (UT-SCC-106A [11]; [16]) was 13.8 nM and the “relative IC50” value (UT-SCC-106A [11]; [17]) was 101 nM. The “relative IC50” value (UT-SCC-106A [11]; [18]) was 19.3 nM, the “relative IC50” value (UT-SCC-42B [12]; [14]) was 9.72 nM and the “relative IC50” value (UT-SCC-42B [12]; [16]) was 47.8 nM. The “relative IC50” value (UT-SCC-42B [12]; [18]) was 54.3 nM, the “relative IC50” value (UT-SCC-40 [13]; [14]) was 16.5 nM and the “relative IC50” value (UT-SCC-40 [13]; [16]) was 39.4 nM. For the same compound, the “relative IC50” value (UT-SCC-40 [13]; [17]) was 54 nM and the “relative IC50” value (UT-SCC-40 [13]; [18]) was 51.7 nM.
